{
  "source": "paper PMC7070908",
  "about": "“Structure-Guided Identification of Black Cohosh (Actaea racemosa) Triterpenoids with In Vitro Activity against Multiple Myeloma” (Molecules, 2020)",
  "key": {"OPM-2 myeloma cell line": {"tested_on": "OPM-2 myeloma cell line", "experiment": "Cytotoxicity, flow cytometry (AnnexinV/propidium iodide negativity), OPM-2", "type": "cell-based, human", "experimental": "(§1) Induction of apoptosis was measured in myeloma cell lines NCI-H929, OPM-2, and U266 as well as in peripheral blood mononuclear cells (PBMCs) of healthy donors by flow cytometry using established protocols thereby staining the cells with AnnexinV-fluorescein isothiocyanate and propidium iodide. Bortezomib (Eubio, Vienna, Austria) was used as positive control. Cell lines were purchased from DSMZ (Braunschweig, Germany) and routinely fingerprinted and tested for mycoplasma negativity. All cells (cell lines and PBMC) were grown in RPMI-1640 medium (Life Technologies, Paisley, UK) supplemented with 10% fetal calf serum (FCS; PAA, Linz, Austria), L-glutamine 100 µg/mL, and penicillin-streptomycin 100 U/mL. PBMCs from healthy donors were used after obtaining written informed consent at the University Hospital Salzburg (ethics committee approval 415-E/1287/6-2011). Cells were subjected to Ficoll separation (Ficoll PaqueTM) and incubated in RPMI-1640 Media with supplements as above. In brief, 0.5 × 10^6 myeloma cells/mL or similar numbers of PMBCs were incubated for 24 h and 48 h with or without the tested compounds dissolved in dimethyl sulfoxide at different concentrations. At least three analyses in triplicates were performed for each cell line and a solvent control was always included. As a positive control, the proteasome inhibitor bortezomib (BTZ) was used at concentrations of 10 and 5 nM. The extent of non-apoptotic cells (AnnexinV/propidium iodide negativity) was calculated as percentage of viable cells in respect to the untreated control. Data are shown as mean percentage of viable cells and standard error of the mean (SEM) (error bars)."}, "U266 myeloma cell line": {"tested_on": "U266 myeloma cell line", "experiment": "Cytotoxicity, flow cytometry (AnnexinV/propidium iodide negativity), U266", "type": "cell-based, human", "experimental": "as §1"}, "[1]": {"tested_on": "normal human gingival fibroblasts (HGF)", "parameters": "method as in PMID 11824572", "settings": "cited from earlier work"}, "[2]": {"tested_on": "peripheral blood mononuclear cells (PBMCs) of healthy donors", "experiment": "Cytotoxicity, flow cytometry (AnnexinV/propidium iodide negativity), PBMC of healthy donors", "type": "cell-based, human", "experimental": "as §1"}, "[3]": {"tested_on": "human squamous cell carcinoma (HSC-2) cells", "parameters": "method as in PMID 11824572", "settings": "cited from earlier work"}, "[4]": {"tested_on": "NCI-H929 myeloma cell line", "experiment": "Cytotoxicity, flow cytometry (AnnexinV/propidium iodide negativity), NCI-H929", "type": "cell-based, human", "experimental": "as §1"}, "GABA(A)-receptors": {"tested_on": "GABA(A)-receptors", "parameters": "method as in PMID 21082802", "settings": "cited from earlier work"}, "MCF7 cells": {"tested_on": "MCF7 cells", "parameters": "method as in PMID 20564500", "settings": "48 h of incubation; cited from earlier work"}, "[5]": {"tested_on": "doxorubicin-resistant-MCF7 (R-MCF7) cells", "parameters": "method as in PMID 20564500", "settings": "doxorubicin-resistant MCF7, 48 h of incubation; cited from earlier work"}, "[6]": {"settings": "12.5 µM, 24 h, second round (Table 3)"}, "[7]": {"settings": "25 µM, 24 h, second round (Table 3)"}, "[8]": {"settings": "37.5 µM, 24 h, second round (Table 3)"}, "[9]": {"settings": "25 µM, 24 h, % of untreated control, mean ± SEM (Table 1)"}, "[10]": {"settings": "25 µM, 48 h, % of untreated control, mean ± SEM (Table 2)"}, "[11]": {"settings": "50 µM, 24 h, % of untreated control, mean ± SEM (Table 1)"}, "[12]": {"settings": "50 µM, 48 h, % of untreated control, mean ± SEM (Table 2)"}},
  "data": [
    {"smiles": "COC(C)(C)C1OC23OC1CC(C)C2C1(C)CCC24CC25CCC(OC2OCC(O)C(O)C2O)C(C)(C)C5CCC4C1(C)C3O", "note": "[Compound 7, 25-O-methylcimigenol-3-O-α-L-arabinopyranoside]", "values": [
      {"measurement": "MM Cells % Alive OPM-2", "setting": "OPM-2 myeloma cell line; [6]", "result": "99.8 ± 1.7", "unit": "%"},
      {"measurement": "MM Cells % Alive OPM-2", "setting": "OPM-2 myeloma cell line; [7]", "result": "88.0 ± 4.5", "unit": "%"},
      {"measurement": "MM Cells % Alive OPM-2", "setting": "OPM-2 myeloma cell line; [8]", "result": "31.3 ± 8.6", "unit": "%"},
      {"measurement": "IC50", "setting": "OPM-2 myeloma cell line; Homo sapiens, OPM-2, 24 h, incubation for 24 h", "result": 21.2, "unit": "µg/mL"},
      {"measurement": "MM Cells % Alive U266", "setting": "U266 myeloma cell line; [6]", "result": "97.0 ± 3.5", "unit": "%"},
      {"measurement": "MM Cells % Alive U266", "setting": "U266 myeloma cell line; [7]", "result": "51.3 ± 11.8", "unit": "%"},
      {"measurement": "MM Cells % Alive U266", "setting": "U266 myeloma cell line; [8]", "result": "5.3 ± 2.8", "unit": "%"},
      {"measurement": "IC50", "setting": "U266 myeloma cell line; Homo sapiens, U-266, 24 h, incubation for 24 h", "result": 16.2, "unit": "µg/mL"},
      {"measurement": "IC50 U266", "setting": "U266 myeloma cell line; incubation for 24 h", "result": 16.1, "unit": "µg/mL"},
      {"measurement": "cytotoxic effects against HGF (in words)", "setting": "[1]", "result": "moderate effects"},
      {"measurement": "PBMC % Alive", "setting": "[2]; [6]", "result": "105.3 ± 0.6", "unit": "%"},
      {"measurement": "PBMC % Alive", "setting": "[2]; [7]", "result": "81.0 ± 8.5", "unit": "%"},
      {"measurement": "PBMC % Alive", "setting": "[2]; [8]", "result": "25.0 ± 6.3", "unit": "%"},
      {"measurement": "IC50", "setting": "[2]; Homo sapiens, PBMC, 24 h, incubation for 24 h", "result": 19.9, "unit": "µg/mL"},
      {"measurement": "cytotoxic effects against HSC-2 cells (in words)", "setting": "[3]", "result": "moderate effects"},
      {"measurement": "MM Cells % Alive NCI-H929", "setting": "[4]; [6]", "result": "95.5 ± 1.8", "unit": "%"},
      {"measurement": "MM Cells % Alive NCI-H929", "setting": "[4]; [7]", "result": "34.3 ± 8.0", "unit": "%"},
      {"measurement": "MM Cells % Alive NCI-H929", "setting": "[4]; [8]", "result": "2.5 ± 1.3", "unit": "%"},
      {"measurement": "IC50", "setting": "[4]; Homo sapiens, NCI-H929, 24 h, incubation for 24 h", "result": 14.7, "unit": "µg/mL"}
    ]},
    {"smiles": "CC(=O)OC(CC(C)C1C(=O)C(O)C2(C)C3CCC4C(C)(C)C(OC5OCC(O)C(O)C5O)CCC45CC35CCC12C)C1OC1(C)C", "note": "[Compound 2, 23-O-acetylshengmanol-3-O-β-D-xylopyranoside]", "values": [
      {"measurement": "effect on GABA(A)-receptors, factor by which it exceeds actein (1) and compound 3", "setting": "GABA(A)-receptors", "result": "> 5"},
      {"measurement": "MM Cells % Alive OPM-2", "setting": "OPM-2 myeloma cell line; [9]", "result": "86.2 ± 8.6", "unit": "%"},
      {"measurement": "MM Cells % Alive OPM-2", "setting": "OPM-2 myeloma cell line; [10]", "result": "84.6 ± 1.0", "unit": "%"},
      {"measurement": "MM Cells % Alive OPM-2", "setting": "OPM-2 myeloma cell line; [11]", "result": "71.0 ± 11.2", "unit": "%"},
      {"measurement": "MM Cells % Alive OPM-2", "setting": "OPM-2 myeloma cell line; [12]", "result": "51.7 ± 8.9", "unit": "%"},
      {"measurement": "MM Cells % Alive U266", "setting": "U266 myeloma cell line; [9]", "result": "79.4 ± 20.2", "unit": "%"},
      {"measurement": "MM Cells % Alive U266", "setting": "U266 myeloma cell line; [10]", "result": "90.2 ± 1.7", "unit": "%"},
      {"measurement": "MM Cells % Alive U266", "setting": "U266 myeloma cell line; [11]", "result": "56.3 ± 21.4", "unit": "%"},
      {"measurement": "MM Cells % Alive U266", "setting": "U266 myeloma cell line; [12]", "result": "62.1 ± 0.4", "unit": "%"},
      {"measurement": "IC50 MCF7", "setting": "MCF7 cells", "result": 39, "unit": "µg/mL"},
      {"measurement": "PBMC % Alive", "setting": "[2]; [9]", "result": "94.7 ± 1.8", "unit": "%"},
      {"measurement": "PBMC % Alive", "setting": "[2]; [10]", "result": "92.7 ± 1.7", "unit": "%"},
      {"measurement": "PBMC % Alive", "setting": "[2]; [11]", "result": "84.0 ± 3.0", "unit": "%"},
      {"measurement": "PBMC % Alive", "setting": "[2]; [12]", "result": "76.1 ± 2.1", "unit": "%"},
      {"measurement": "MM Cells % Alive NCI-H929", "setting": "[4]; [9]", "result": "87.7 ± 4.9", "unit": "%"},
      {"measurement": "MM Cells % Alive NCI-H929", "setting": "[4]; [10]", "result": "63.9 ± 10.6", "unit": "%"},
      {"measurement": "MM Cells % Alive NCI-H929", "setting": "[4]; [11]", "result": "27.9 ± 12.2", "unit": "%"},
      {"measurement": "MM Cells % Alive NCI-H929", "setting": "[4]; [12]", "result": "17.4 ± 7.3", "unit": "%"},
      {"measurement": "IC50 R-MCF7", "setting": "[5]", "result": 60, "unit": "µg/mL"}
    ]}
  ]
}
